These results are taken from patent US9896441B2 (Lycera Corporation, priority 2014, dated 2018).

Bounds are passed on as bounds.

The target of one assay is T1, Gal4-RORγ-LBD (Homo sapiens, UniProt P51449).
T1 construct: expressed in transfected cells
T1 sequence (P51449 269-508 limits assumed): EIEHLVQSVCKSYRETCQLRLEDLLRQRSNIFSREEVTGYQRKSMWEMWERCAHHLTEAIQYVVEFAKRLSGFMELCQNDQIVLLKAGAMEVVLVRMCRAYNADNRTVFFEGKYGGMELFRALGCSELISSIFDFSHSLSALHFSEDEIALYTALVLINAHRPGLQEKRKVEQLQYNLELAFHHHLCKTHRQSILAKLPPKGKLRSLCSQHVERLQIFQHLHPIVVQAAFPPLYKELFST
The assay is described as follows: Gal4-RORγ Luciferase Reporter Assay in HEK-293T Cells. Format: cell-based. The settings on record: HEK-293 cells, luciferase reporter, in presence of ursolic acid; for Gal4-RORγ Assay Max Response: maximum response. The gist of the method:
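Max Response was taken as the upper plateau of a 4-parameter logistic fit of luciferase signal, normalized to 100 for wells without ursolic acid or compound. Transiently Gal4-RORγ-LBD/Gal4-luc transfected HEK-293 cells carrying […] ursolic acid were incubated with test compounds (0.2% DMSO) overnight at 37 °C and read with One-Glo.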
(In general: Reporter assays use an easily measured gene product as a stand-in for the process of interest.)

The next assay deals with T2, RORγ-LBD (Homo sapiens, UniProt P51449).
T2 construct: made in house; host or cells: SF9 cells (baculovirus); used as diluted lysate
T2 sequence (P51449 269-508 limits assumed): T1 sequence (P51449 269-508 limits assumed)
The assay is described as follows: RORγ-Ligand Binding Domain (LBD) TR-FRET Assay.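 On TR-FRET Assay Max Response: 665/615 nm signal ratio set to 100 without ursolic acid or test compound.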 Format: biochemical. As to conditions: RORγ-LBD TR-FRET assay; for TR-FRET Assay Max Response: maximum response. The gist of the method: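 Lysate from SF9 cells expressing His-RORγ-LBD is diluted to about 3 nM final in 50 mM Tris pH 7.0 assay buffer. A biotin-tagged SRC1 LXXLL peptide goes in at 200 nM final, plus ursolic acid at 2 μM final. Test compounds carry 1% DMSO final; signal read by TR-FRET.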
For orientation: Time-resolved FRET reads energy transfer from a long-lived donor to a nearby acceptor.

One may read the EC50 as the concentration giving half of the maximal effect. As for `COc1cc(S(=O)(=O)N2C[C@H](CC(C)(C)C(=O)O)Cc3ccc(/C=C/c4c(F)cccc4Cl)cc32)ccc1F` [Example 154A], on Gal4-RORγ-LBD, the EC50 was less than 500 nM and the “Gal4-RORγ Assay Max Response” value is “* (a value in the range of 30 to 90)”. In addition, on RORγ-LBD, the EC50 is less than 500 nM and the “TR-FRET Assay Max Response” value is given as “** (a value in the range of greater than 90 to 150)”.
For `COc1cc(S(=O)(=O)N2C[C@H](CC(C)(C)C(=O)O)Cc3ccc(/C=C(\C)c4c(F)cccc4Cl)cc32)ccc1F` [Example 154C, (S,E)-3-(7-(2-(2-chloro-6-fluorophenyl)prop-1-en-1-yl)-1-((4-fluoro-3-methoxyphenyl)sulfonyl)-1,2,3,4-tetrahydroquinolin-3-yl)-2,2-dimethylpropanoic acid], on Gal4-RORγ-LBD, the EC50 is 500 to 5000 nM and the “Gal4-RORγ Assay Max Response” value is given as “** (a value in the range of greater than 90 to 150)”. Besides, at RORγ-LBD, the EC50 was less than 500 nM and the “TR-FRET Assay Max Response” value is reported as “** (a value in the range of greater than 90 to 150)”.
As for `O=S(=O)(c1cccc(C(F)(F)F)c1)N1C[C@H](O)Cc2ccc(OCc3c(F)cccc3Cl)cc21` [Example 155, (R)-7-((2-Chloro-6-fluorobenzyl)oxy)-1-((3-(trifluoromethyl)phenyl)sulfonyl)-1,2,3,4-tetrahydroquinolin-3-ol], on Gal4-RORγ-LBD, the EC50 is less than 500 nM and the “Gal4-RORγ Assay Max Response” value was “** (a value in the range of greater than 90 to 150)”. At RORγ-LBD, the EC50 is less than 500 nM and the “TR-FRET Assay Max Response” value is given as “** (a value in the range of greater than 90 to 150)”.
As for `O=C(O)CO[C@@H]1Cc2ccc(OCc3c(F)cccc3Cl)cc2N(S(=O)(=O)c2cccc(C(F)(F)F)c2)C1` [Example 157, (R)-2-((7-((2-Chloro-6-fluorobenzyl)oxy)-1-((3-(trifluoromethyl)phenyl)sulfonyl)-1,2,3,4-tetrahydroquinolin-3-yl)oxy)acetic acid], on Gal4-RORγ-LBD, the EC50 was 500 to 5000 nM and the “Gal4-RORγ Assay Max Response” value is given as “** (a value in the range of greater than 90 to 150)”. Besides, at RORγ-LBD, the EC50 was less than 500 nM and the “TR-FRET Assay Max Response” value is recorded as “** (a value in the range of greater than 90 to 150)”.
For `O=S(=O)(c1cccc(C(F)(F)F)c1)N1C[C@@H](O)Cc2ccc(OCc3c(F)cccc3Cl)cc21` [Example 158, (S)-7-((2-Chloro-6-fluorobenzyl)oxy)-1-((3-(trifluoromethyl)phenyl)sulfonyl)-1,2,3,4-tetrahydroquinolin-3-ol], the EC50 on Gal4-RORγ-LBD and at RORγ-LBD was less than 500 nM throughout.
For `N[C@@H]1Cc2ccc(OCc3c(F)cccc3Cl)cc2N(S(=O)(=O)c2cccc(C(F)(F)F)c2)C1` [Example 159, (R)-7-((2-Chloro-6-fluorobenzyl)oxy)-1-((3-(trifluoromethyl)phenyl)sulfonyl)-1,2,3,4-tetrahydroquinolin-3-amine], the EC50 at Gal4-RORγ-LBD was 500 to 5000 nM; on RORγ-LBD it was less than 500 nM.
`CC(=O)N[C@@H]1Cc2ccc(OCc3c(F)cccc3Cl)cc2N(S(=O)(=O)c2cccc(C(F)(F)F)c2)C1` [Example 160, (R)—N-(7-((2-chloro-6-fluorobenzyl)oxy)-1-((3-(trifluoromethyl)phenyl)sulfonyl)-1,2,3,4-tetrahydroquinolin-3-yl)acetamide]: the EC50 on Gal4-RORγ-LBD and at RORγ-LBD was less than 500 nM in each case.
For the compound `C/C(=C\c1ccc2c(c1)N(S(=O)(=O)c1cccc(C(F)(F)F)c1)C[C@@H](O)C2)c1c(F)cccc1Cl` [Example 161, (S,E)-7-(2-(2-Chloro-6-fluorophenyl)prop-1-en-1-yl)-1-((3-(trifluoromethyl)phenyl)sulfonyl)-1,2,3,4-tetrahydroquinolin-3-ol], on Gal4-RORγ-LBD, the EC50 was less than 500 nM and the “Gal4-RORγ Assay Max Response” value is on record as “** (a value in the range of greater than 90 to 150)”. At RORγ-LBD, the EC50 was less than 500 nM and the “TR-FRET Assay Max Response” value is “** (a value in the range of greater than 90 to 150)”.
As for `C/C(=C\c1ccc2c(c1)N(S(=O)(=O)c1cccc(C(F)(F)F)c1)C[C@H](O)C2)c1c(F)cccc1Cl` [Example 162, (R,E)-7-(2-(2-Chloro-6-fluorophenyl)prop-1-en-1-yl)-1-((3-(trifluoromethyl)phenyl)sulfonyl)-1,2,3,4-tetrahydroquinolin-3-ol], at Gal4-RORγ-LBD, the EC50 was less than 500 nM and the “Gal4-RORγ Assay Max Response” value is “** (a value in the range of greater than 90 to 150)”. For the same compound, at RORγ-LBD, the EC50 was less than 500 nM and the “TR-FRET Assay Max Response” value is recorded as “*** (a value in the range of greater than 150 to 200)”.
Take `O=S(=O)(c1cccc(C(F)(F)F)c1)N1C[C@H](O)Cc2ccc(/C=C/c3c(F)cccc3Cl)cc21` [Example 163, (R,E)-7-(2-Chloro-6-fluorostyryl)-1-((3-(trifluoromethyl)phenyl)sulfonyl)-1,2,3,4-tetrahydroquinolin-3-ol]: at Gal4-RORγ-LBD, the EC50 is less than 500 nM and the “Gal4-RORγ Assay Max Response” value was “** (a value in the range of greater than 90 to 150)”. Besides, at RORγ-LBD, the EC50 was less than 500 nM and the “TR-FRET Assay Max Response” value was “** (a value in the range of greater than 90 to 150)”.
For `C/C(=C\c1ccc2c(c1)N(S(=O)(=O)c1cccc(C(F)(F)F)c1)C[C@H](N)C2)c1c(F)cccc1Cl` [Example 164, (R,E)-7-(2-(2-Chloro-6-fluorophenyl)prop-1-en-1-yl)-1-((3-(trifluoromethyl)phenyl)sulfonyl)-1,2,3,4-tetrahydroquinolin-3-amine], the results for the EC50 at Gal4-RORγ-LBD and on RORγ-LBD were 500 to 5000 nM and less than 500 nM, respectively.
For `CC(=O)N[C@@H]1Cc2ccc(/C=C(\C)c3c(F)cccc3Cl)cc2N(S(=O)(=O)c2cccc(C(F)(F)F)c2)C1` [Example 165, (R,E)-N-(7-(2-(2-Chloro-6-fluorophenyl)prop-1-en-1-yl)-1-((3-(trifluoromethyl)phenyl)sulfonyl)-1,2,3,4-tetrahydroquinolin-3-yl)acetamide], on Gal4-RORγ-LBD, the EC50 was less than 500 nM and the “Gal4-RORγ Assay Max Response” value is recorded as “* (a value in the range of 30 to 90)”. At RORγ-LBD, the EC50 was less than 500 nM and the “TR-FRET Assay Max Response” value is recorded as “*** (a value in the range of greater than 150 to 200)”.
On to `C/C(=C\c1ccc2c(c1)N(S(=O)(=O)c1cccc(C(F)(F)F)c1)C[C@@H](N)C2)c1c(F)cccc1Cl` [Example 166, (S,E)-7-(2-(2-Chloro-6-fluorophenyl)prop-1-en-1-yl)-1-((3-(trifluoromethyl)phenyl)sulfonyl)-1,2,3,4-tetrahydroquinolin-3-amine], for which, on Gal4-RORγ-LBD, the EC50 was in the range of 500 to 5000 nM and the “Gal4-RORγ Assay Max Response” value is recorded as “** (a value in the range of greater than 90 to 150)”. For the same compound, on RORγ-LBD, the EC50 is less than 500 nM and the “TR-FRET Assay Max Response” value is on record as “*** (a value in the range of greater than 150 to 200)”.
In the case of `CC(=O)N[C@H]1Cc2ccc(/C=C(\C)c3c(F)cccc3Cl)cc2N(S(=O)(=O)c2cccc(C(F)(F)F)c2)C1` [Example 167, (S,E)-N-(7-(2-(2-chloro-6-fluorophenyl)prop-1-en-1-yl)-1-((3-(trifluoromethyl)phenyl)sulfonyl)-1,2,3,4-tetrahydroquinolin-3-yl)acetamide], at Gal4-RORγ-LBD, the EC50 fell in the range of 500 to 5000 nM and the “Gal4-RORγ Assay Max Response” value is reported as “** (a value in the range of greater than 90 to 150)”. For the same compound, at RORγ-LBD, the EC50 was less than 500 nM and the “TR-FRET Assay Max Response” value is “*** (a value in the range of greater than 150 to 200)”.
Consider `CC(C)(O[C@@H]1Cc2ccc(OCc3c(F)cccc3Cl)cc2N(S(=O)(=O)c2cccc(C(F)(F)F)c2)C1)C(=O)O` [Example 172, (R)-2-((7-((2-Chloro-6-fluorobenzyl)oxy)-1-((3-(trifluoromethyl)phenyl)sulfonyl)-1,2,3,4-tetrahydroquinolin-3-yl)oxy)-2-methylpropanoic acid], for which, on Gal4-RORγ-LBD, the EC50 was in the range of 500 to 5000 nM and the “Gal4-RORγ Assay Max Response” value is recorded as “** (a value in the range of greater than 90 to 150)”. In addition, at RORγ-LBD, the EC50 is less than 500 nM and the “TR-FRET Assay Max Response” value is listed as “** (a value in the range of greater than 90 to 150)”.
For `COC(=O)CO[C@@H]1Cc2ccc(OCc3c(F)cccc3Cl)cc2N(S(=O)(=O)c2cccc(C(F)(F)F)c2)C1` [Example 173A], the EC50 on Gal4-RORγ-LBD and at RORγ-LBD was less than 500 nM each time.
For `CC(O[C@@H]1Cc2ccc(OCc3c(F)cccc3Cl)cc2N(S(=O)(=O)c2cccc(C(F)(F)F)c2)C1)C(=O)O` (stereo partly drawn) [Example 173C, 2-(((R)-7-((2-chloro-6-fluorobenzyl)oxy)-1-((3-(trifluoromethyl)phenyl)sulfonyl)-1,2,3,4-tetrahydroquinolin-3-yl)oxy)propanoic acid], at Gal4-RORγ-LBD, the EC50 was less than 500 nM and the “Gal4-RORγ Assay Max Response” value is given as “** (a value in the range of greater than 90 to 150)”. Also, on RORγ-LBD, the 50% effective concentration (EC50) is less than 500 nM and the “TR-FRET Assay Max Response” value is reported as “** (a value in the range of greater than 90 to 150)”.
In the case of `COC(=O)CO[C@@H]1Cc2ccc(/C=C(\C)c3c(F)cccc3Cl)cc2N(S(=O)(=O)c2cccc(C(F)(F)F)c2)C1` [Example 173D, methyl (R,E)-2-((7-(2-(2-chloro-6-fluorophenyl)prop-1-en-1-yl)-1-((3-(trifluoromethyl)-phenyl)sulfonyl)-1,2,3,4-tetrahydroquinolin-3-yl)oxy)acetate], on Gal4-RORγ-LBD, the EC50 was less than 500 nM and the “Gal4-RORγ Assay Max Response” value is reported as “** (a value in the range of greater than 90 to 150)”. Further, at RORγ-LBD, the EC50 is less than 500 nM and the “TR-FRET Assay Max Response” value was “** (a value in the range of greater than 90 to 150)”.
